Experimental data published in the NIST ThermoML archive (doi:10.1021/je300347z).

Assays:
[1] = Liquid; for mass density: 293.2 K, 101.33 kPa, Vibrating tube method
[2] = refractive index (Na D-line) (dimensionless); details: 293.2 K; 101.33 kPa; Liquid; Standard Abbe refractometry

CCCCCCO [hexan-1-ol]
Details	mass density [kg/m3]	refractive index
[1]	816.31	–
[2]	–	1.4207

[1]
Details	vapor or sublimation pressure [kPa]
369.8 K	10
385.7 K	20
395.7 K	30
403.2 K	40
403.4 K	40
409.3 K	50
414.5 K	60
419 K	70
423 K	80
426.5 K	90
429.6 K	99.7

CCCO [propan-1-ol]
Details	mass density [kg/m3]	refractive index
[1]	801.33	–
[2]	–	1.3851

[1]
Details	vapor or sublimation pressure [kPa]
319.6 K	10
332.8 K	20
341.3 K	30
347.7 K	40
352.7 K	50
357.1 K	60
360.8 K	70
364.1 K	80
367.1 K	90
369.8 K	100

CCCCO [butan-1-ol]
Details	mass density [kg/m3]	refractive index
[1]	810.28	–
[2]	–	1.3993

[1]
Details	vapor or sublimation pressure [kPa]
337.2 K	10
351.1 K	20
360 K	30
366.7 K	40
372.1 K	50
376.6 K	60
380.5 K	70
384 K	80
387.2 K	90
390.1 K	100

CCCCCO [pentan-1-ol]
Details	mass density [kg/m3]	refractive index
[1]	814.16	–
[2]	–	1.4097

[1]
Details	vapor or sublimation pressure [kPa]
354 K	10
368.7 K	20
378 K	30
384.7 K	40
385.3 K	40
391 K	50
395.9 K	60
400.2 K	70
403.9 K	80
407.3 K	90
410.4 K	100

CC(C)O [propan-2-ol]
Details	mass density [kg/m3]	refractive index
[1]	785.42	–
[2]	–	1.3771

[1]
Details	vapor or sublimation pressure [kPa]
307.1 K	10
319.9 K	20
328 K	30
334 K	40
334.1 K	40
338.8 K	50
342.9 K	60
346.5 K	70
349.7 K	80
352.5 K	90
355 K	100

CCO [ethanol]
Details	mass density [kg/m3]	refractive index
[1]	789.91	–
[2]	–	1.3612

[1]
Details	vapor or sublimation pressure [kPa]
302.4 K	10
315.4 K	20
323.6 K	30
329.7 K	40
330 K	40
334.7 K	50
338.8 K	60
342.4 K	70
345.6 K	80
348.5 K	90
351.1 K	100

C=C(C)[C@H]1CC=C(C)CC1 [(R)-1-methyl-4-(1-methylethenyl)cyclohexene]
Details	mass density [kg/m3]	refractive index
[1]	814.83	–
[2]	–	1.473

[1]
Details	vapor or sublimation pressure [kPa]
375.5 K	10
394.5 K	20
403.2 K	27.48
406.5 K	30
415.7 K	40
415.8 K	40
423.2 K	49.74
423.4 K	50
429.8 K	60
435.5 K	70
440.5 K	80
445 K	90
450 K	100
